{"source": "patent US20230114627A1", "about": "“COMPOSITION COMPRISING A METAL ASCORBO-CAMPHORATE COMPOUND AND METHOD FOR PREVENTION AND/OR TREATMENT OF PAPILLOMAVIRUS INFECTIONS” (MGB PHARMA Inc., priority 2020, published 2023)", "key": {"[1]": {"tested_on": "human diploid MRC5 cells", "test": "MTT cytotoxicity assay on MRC5 cells", "format": "cell-based", "procedure": "(§1) The cytotoxicity study was conducted on three types of cells: on Vero cells, on human diploid MRC5 cells (human fibroblast and embryonic type), and on Cos-7 cells. […] The latter forms crystals with the highly metabolic living cells.\n(§2) The absorbance at 490 nm of the dissolved crystals corresponds to the number of living cells.\nIn a second series of tests, the cytotoxicity of said ascorbo-camphorate on MRC5 cells was tested with the solutions at dilution ratios ranging from 0 to 100 millionths."}, "[2]": {"tested_on": "CaCo-2 (intestinal cells)", "test": "XTT cell viability (KIT Tox-2) on CaCo-2", "format": "cell-based", "conditions": "CaCo-2, 24 hours, 1 μM to 500 μM tested", "procedure": "(§3) In this example, the cell viability as a measure of non-toxicity was assessed using KIT Tox-2 XTT Sigma Aldrich, where cell viability was measured in terms of the ability of cells to degrade a colorless compound into a colored compound (mitochondrial enzymes) using color intensity as being proportional to the cell viability. Three cell lines as models were used including HEC-1A (line of endocervical origin), SiHa (vaginal cells), and CaCo-2 (intestinal cells). […] KIT Tox-2 XTT Sigma Aldrich."}, "[3]": {"tested_on": "VLP-16 pseudovirions of the HPV-16 virus", "conditions": "for inhibitory concentration 50 (IC50) / IC50: estimated; for IC50: read-out: inhibitory concentration 50 (IC50)", "procedure": "This experiment provides the data and analysis of an in vitro “AC” experimental treatment against the HPV-16 papillomavirus which was carried out by neutralizing the entry of viral pseudo particles (VLP-16) of the HPV-16 virus which was inoculated into Cos-7 cells, pretreated or treated contemporaneously to the inoculation of the VLP-16 with solutions of increasing concentrations of the said ascorbo-camphorate compound (AC).\nIn the case of the present tests in this example, pseudovirions were produced at the Université François Rabelais de Tours (France), under the direction of Professor A. Touzet. In brief, the VLP-16 virus pseudo particles or pseudovirions or VLPs were produced by transfection of purified plasmids containing the L1 and L2 structural proteins of the HPV-16 capsomers, and carrying a gene encoding the luciferase marker gene, into cell culture of the 293-cell line. VLP-16s were collected by nuclear lysis, with purification by […] gradient ultracentrifugation.\nThe positive control for the neutralization assay as disclosed herein used purified VLP-16 inoculum pre-incubated with purified antibodies against HPV (incubation for 1 hour of said VLP nuclear lysate in a solution of anti-HPV antibodies in DMED culture medium). These anti-HPV antibodies served as a positive control in the plaque assay for neutralization of Cos-7 cell infection by VLP-16.\nCells of the Cos-7 cell line were cultured in 96-well microplates, 5% CO2 and 98% H2O, at 37° C. Inoculation of Cos-7 cells was performed as follows: the inoculum mixture was added to the wells containing the confluent Cos-7 sheets, incubated for 72 hours at 37° C., 5% CO2 and 98% H2O, and the supernatant is washed and discarded from the mixture.\nCos-7 cells that may have internalized the luciferase-expressing VLPs were then recovered. The Cos-7 cells were then lysed; then the substrate (luciferin) of the reporter gene (luciferase) was added with dark incubation, for reading using a luminometer.\nFor each series, the experiments were repeated three times.\nTo assess pseudovirions infectivity, linear reporter gene expression and to perform titration of pseudovirions solutions, Cos-7 cells were grown (10^4 cells/well) in supplemented DMEM in 96-well plates (Thermo Fisher Scientific) in 5% CO2 at +37° C. until cell confluence was 40-50%. Cells were transduced by replacing the culture medium with fresh unsupplemented DMEM containing serial dilutions of the previously produced PsVs stock solutions and incubated at +37° C. One well containing 1 μg of the pGL4.10[luc2] vector, encoding the luciferase reporter gene, was made as a positive control and another was the cell control for background luminescence (without PsVs or reporter plasmid). After a 3 hours incubation period, 100 μL of growth medium was added to each well and the transduced Cos-7 cells were incubated for 48 h at +37° C. in 5% CO2. Then, the growth medium was removed and the transduced Cos-7 cells were washed with DPBS and incubated in the dark for 15 min in 100 μL of Pierce™ Firefly Luciferase One-Step Glow Assay (Thermo Fisher Scientific). The resulting cell lysates were harvested and transferred to white, 96-well microplates and luciferase enzyme activity was measured using the Luminoskan Ascent brand luminometer (from Thermo Fisher Scientific) after adding 50 μL of luciferin substrate to each well.\nSerial dilutions of the stock solution of compound “AC” covering an appropriate concentration range were subjected to an HPV inhibition assay based on VLP-16 pseudovirions."}, "[4]": {"tested_on": "CaCo-2", "test": "Transepithelial electrical resistance (TEER) of CaCo-2 monostratified epithelium", "format": "cell-based", "conditions": "CaCo-2, up to 500 μM, 24 hours"}, "[5]": {"tested_on": "Vero cells", "test": "MTT cytotoxicity assay on Vero cells", "format": "cell-based", "procedure": "as §1, §2\nIn a first series of tests, the Cytotoxicity of said ascorbo-camphorate on Vero cells was verified with these solutions at dilution rates ranging from one tenth to one billionth."}, "[6]": {"tested_on": "HEC-1A (line of endocervical origin)", "test": "XTT cell viability (KIT Tox-2) on HEC-1A", "format": "cell-based", "conditions": "24 hours, 1 μM to 500 μM tested", "procedure": "as §3"}, "[7]": {"tested_on": "SiHa (vaginal cells)", "test": "XTT cell viability (KIT Tox-2) on SiHa", "format": "cell-based", "conditions": "24 hours, 1 μM to 500 μM tested", "procedure": "as §3"}, "[8]": {"tested_on": "Cos-7 cells", "test": "Colorimetric cell viability assay on Cos-7 cells", "format": "cell-based", "conditions": "24 hours, estimated; read-out: 50% cytotoxic concentration (CC50)", "procedure": "as §1\nIn a third series of tests, the cytotoxicity of said ascorbo-camphorate on Cos-7 cells was verified. High concentrations of said ascorbo-camphorate may be required to produce an effective formulation. Therefore, the intrinsic toxicity of concentrations of said ascorbo-camphorate up to 5,000 μg/mL was evaluated using a colorimetric cell viability assay. Cos-7 cells were exposed to serial dilutions of the stock solution of said ascorbo-camphorate for 24 hours.\nThe viability index, or the fraction of viable cells after microbicide treatment relative to the fraction of viable cells exposed to the control condition, was calculated. Cells treated with 0.1% PBS-azide solution were used as a positive control for toxicity. The viability index, or the fraction of viable cells after treatment with the compound “AC” relative to the fraction of viable cells exposed to the natural state, was calculated. […] The 50% cytotoxic concentration (CC50) of said ascorbic camphorate was calculated using a dose-response-inhibition analysis on GraptiPad Prism v5.04 software (from GraphPad Software)."}, "[9]": {"tested_on": "HEC-1A", "test": "Transepithelial electrical resistance (TEER) of HEC-1A monostratified epithelium", "format": "cell-based", "conditions": "up to 500 μM, 24 hours"}, "[10]": {"conditions": "pseudovirions added simultaneously"}}, "note": "Read-outs that look alike come from different tables or passages of the source.", "data": [{"substance": "zinc tetra-ascorbo-camphorate [C14]", "values": [{"measurement": "molarity of solutions tolerable by MRC5 cells (upper limit, exclusive value)", "setting": "[1]; lower limit tested 5.15.10-4 μM", "result": "< 5155", "unit": "µM"}, {"measurement": "percentage of living cells remaining", "setting": "[1]; one-tenth dilution of 0.05155 M stock", "result": "greater than or equal to 50%"}, {"measurement": "concentrations without toxicity to epithelial cells", "setting": "[2]", "result": "less than or equal to 125 μM"}, {"measurement": "inhibition of VLP-16 internalization", "setting": "[3]; contemporaneous addition, 1/10 dilution (515.5 μM)", "result": "Total inhibition"}, {"measurement": "inhibition of VLP-16 penetration into Cos-7 cells", "setting": "[3]; contemporaneous addition, dilution 1:10^3 (51.5 μM)", "result": 33, "unit": "%"}, {"measurement": "inhibitory concentration 50 (IC50)", "setting": "[3]; pre-treatment of Cos-7 cells", "result": 2.8, "unit": "µg/mL"}, {"measurement": "inhibition of penetration of VLP-16 into Cos-7 cells", "setting": "[3]; pretreatment, compared to untreated infected controls", "result": "30-40%"}, {"measurement": "inhibition of VLP-16 internalization", "setting": "[3]; pretreatment, dilution 1/10^2 (515.5 μM)", "result": "total inhibition"}, {"measurement": "inhibitory concentration 50 (IC50)", "setting": "[3]; [10]", "result": 8.1, "unit": "µg/mL"}, {"measurement": "IC50", "setting": "[3]; pre-treatment of Cos-7 cells", "result": 2.9, "unit": "µM"}, {"measurement": "IC50", "setting": "[3]; [10]", "result": 8.3, "unit": "µM"}, {"measurement": "effect on TEER", "setting": "[4]", "result": "does not affect the TEER"}, {"measurement": "percentage of living cells remaining", "setting": "[5]; 50-fold dilution of 0.05155 M stock", "result": "greater than or equal to 50%"}, {"measurement": "molarity of solutions tolerable by Vero cells (upper limit, value excluded)", "setting": "[5]; lower limit tested 5.15.10^−5 μM", "result": "< 1031", "unit": "µM"}, {"measurement": "concentrations without toxicity to epithelial cells", "setting": "[6]", "result": "less than or equal to 125 μM"}, {"measurement": "concentrations without toxicity to epithelial cells", "setting": "[7]", "result": "less than or equal to 125 μM"}, {"measurement": "CC50", "setting": "[8]", "result": "> 5150", "unit": "µM"}, {"measurement": "effect on TEER", "setting": "[9]", "result": "does not affect the TEER"}]}]}
